Test results reported in PMC4648982 (Chemistry Central Journal, 2015).
Structures can show the parent of a compound that is named as a salt.

Target: jack bean urease (Canavalia ensiformis, UniProt P07374)
Experiment: biochemical
Details: for urease inhibitory activity in words: in vitro assay, authors' verbal grading
Procedure: Reaction mixture comprising of 25μL of enzyme (jack bean urease) (1 unit/well) solution and 55 μL of phosphate buffers (4 mM) containing 100 mM urea were incubated with 5 μL of test compounds dissolved in methanol (0.5 mM concentration) at 30 °C for 15 min in 96-well plates. Urease activity was determined by measuring ammonia production using the indophenol method as described by Weather burn. Briefly, 45 μl each phenol reagent (1 % w/v phenol and 0.005 % w/v sodium nitroprussside) and 70 μL of alkali reagent(0.5 % w/v NaOH and 0.1 % active chloride NaOCl) were added to each well. The increasing absorbance at 630 nm was measured afther 50 min, using a microplate reader (Molecular Device, USA). All reactions were performed in triplicate in a final volume of 200 μL. The results (change in absorbance per min) were processed by using softMax Pro software (molecular Device, USA). The entire assays were performed at pH 6.8. Percentage inhibitions were calculated from the formula 100 − (ODtestwell/ODcontrol) × 100. Thiourea was used as the standard inhibitor of urease.

jack bean urease, sequence (P07374 whole entry, looked up): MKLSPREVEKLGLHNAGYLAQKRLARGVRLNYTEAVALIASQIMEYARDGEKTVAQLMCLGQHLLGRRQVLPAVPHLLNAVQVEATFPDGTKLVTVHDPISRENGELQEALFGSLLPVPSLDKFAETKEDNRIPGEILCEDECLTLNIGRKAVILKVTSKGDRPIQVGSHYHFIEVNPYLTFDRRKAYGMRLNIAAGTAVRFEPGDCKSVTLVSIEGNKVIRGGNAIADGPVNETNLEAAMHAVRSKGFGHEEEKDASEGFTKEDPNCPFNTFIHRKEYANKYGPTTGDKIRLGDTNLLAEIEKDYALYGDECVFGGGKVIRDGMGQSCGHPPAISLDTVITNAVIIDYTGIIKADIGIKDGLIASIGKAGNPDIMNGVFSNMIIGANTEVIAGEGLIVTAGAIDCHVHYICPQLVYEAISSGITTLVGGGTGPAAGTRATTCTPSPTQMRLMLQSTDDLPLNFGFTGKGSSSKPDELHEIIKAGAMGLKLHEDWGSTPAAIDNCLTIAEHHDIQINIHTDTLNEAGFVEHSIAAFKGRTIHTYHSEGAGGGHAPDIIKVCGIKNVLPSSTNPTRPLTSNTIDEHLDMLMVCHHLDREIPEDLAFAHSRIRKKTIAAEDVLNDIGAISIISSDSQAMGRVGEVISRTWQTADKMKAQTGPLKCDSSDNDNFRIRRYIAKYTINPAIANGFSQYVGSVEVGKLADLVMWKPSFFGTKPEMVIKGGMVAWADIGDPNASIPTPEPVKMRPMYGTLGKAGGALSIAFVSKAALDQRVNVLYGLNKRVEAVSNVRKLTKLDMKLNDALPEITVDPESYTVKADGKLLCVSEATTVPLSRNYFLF

CC1(C)CC(=O)C(C(c2ccc(Br)cc2)c2c(O)[nH]c(=O)[nH]c2=O)=C(O)C1 (stereo not shown) [Compound 5o, 5-((4-Bromophenyl)(2-hydroxy-4,4-dimethyl-6-oxocyclohex-1-en-1-yl)methyl)-2,6-dioxo-1,2,3,6-tetrahydropyrimidin-4-olate diethylaminium salt]
IC50: 34.6 ± 0.79 µM

COc1ccc(C(c2c(O)[nH]c(=O)[nH]c2=O)c2c(O)[nH]c(=O)[nH]c2=O)cc1 [Compound 4k, 5,5′-((4-Methoxyphenyl)methylene)bis(6-hydroxypyrimidine-2,4(1H,3H)-dione) diethylaminium salt]
IC50: 25.8 ± 0.23 µM

CC1(C)CC(=O)C(C(c2ccc(C=O)cc2)c2c(O)[nH]c(=O)[nH]c2=O)=C(O)C1 (stereo not shown) [Compound 5q, 2-((4-Formylphenyl)(6-hydroxy-2,4-dioxo-1,2,3,4-tetrahydropyrimidin-5-yl)methyl)-5,5-dimethyl-3-oxocyclohex-1-enolate diethylaminium salt]
IC50: 41.6 ± 0.41 µM

CC1(C)CC(=O)C(C(C2=C(O)CC(C)(C)CC2=O)c2ccc(O)cc2)=C(O)C1 [Compound 5k, 2-((2-Hydroxy-4,4-dimethyl-6-oxocyclohex-1-en-1-yl)(4-hydroxyphenyl)methyl)-5,5-dimethyl-3-oxocyclohex-1-enolate diethylaminium salt]
IC50: 43.8 ± 0.33 µM
urease inhibitory activity in words: good urease inhibitory activity

Cn1c(O)c(C(C2=C(O)CC(C)(C)CC2=O)c2ccc(Cl)cc2Cl)c(=O)n(C)c1=O (stereo not shown) [Compound 4w, 5-((2,4-Dichlorophenyl)(2-hydroxy-4,4-dimethyl-6-oxocyclohex-1-en-1-yl)methyl)-1,3-dimethyl-2,6-dioxo-1,2,3,6-tetrahydropyrimidin-4-olate diethylaminium salt]
IC50: 59.4 ± 0.98 µM

Cn1c(O)c(C(C2=C(O)CC(C)(C)CC2=O)c2ccc(Br)cc2)c(=O)n(C)c1=O (stereo not shown) [Compound 4q, 5-((4-Bromophenyl)(2-hydroxy-4,4-dimethyl-6-oxocyclohex-1-en-1-yl)methyl)-1,3-dimethyl-2,6-dioxo-1,2,3,6-tetrahydropyrimidin-4-olate diethylaminium salt]
IC50: 24.6 ± 0.42 µM

O=c1[nH]c(O)c(C(c2ccc(Cl)cc2)c2c(O)[nH]c(=O)[nH]c2=O)c(=O)[nH]1 [Compound 4j, 5,5′-((4-Chlorophenyl)methylene)bis(6-hydroxypyrimidine-2,4(1H,3H)-dione) diethylaminium salt]
IC50: 22.3 ± 0.73 µM
urease inhibitory activity in words: active

Cn1c(O)c(C(C2=C(O)CC(C)(C)CC2=O)c2ccc(C=O)cc2)c(=O)n(C)c1=O (stereo not shown) [Compound 4x, 4-((6-hydroxy-1,3-dimethyl-2,4-dioxo-1,2,3,4-tetrahydropyrimidin-5-yl)(2-hydroxy-4,4-dimethyl-6-oxocyclohex-1-en-1-yl)methyl)benzaldehyde diethylaminium salt]
IC50: 38.5 ± 0.28 µM

Cn1c(O)c(C(c2ccc(C=O)cc2)c2c(O)[nH]c(=O)[nH]c2=O)c(=O)n(C)c1=O (stereo not shown) [Compound 5l, 4-((6-Hydroxy-1,3-dimethyl-2,4-dioxo-1,2,3,4-tetrahydropyrimidin-5-yl)(6-hydroxy-2,4-dioxo-1,2,3,4-tetrahydropyrimidin-5-yl)methyl)benzaldehyde diethylaminium salt]
IC50: 17.2 ± 0.44 µM
urease inhibitory activity in words: most active

CC1(C)CC(=O)C(C(C2=C(O)CC(C)(C)CC2=O)c2ccc(C=O)cc2)=C(O)C1 [Compound 5j, 2-((4-Formylphenyl)(2-hydroxy-4,4-dimethyl-6-oxocyclohex-1-en-1-yl)methyl)-5,5-dimethyl-3-oxocyclohex-1-enolate diethylaminium salt]
IC50: 72.6 ± 0.59 µM
